Where two headings read alike, the source gives them in different places.

Data set [1] in a line: log P by HPLC on reversed-phase C18 columns (OECD Guideline 117). The class given is physicochemical. To be noted: for chromatographic logP: reversed-phase C18 HPLC column.
The subject of data set [2] is green peach aphid (Myzus persicae). The experiment in a line: Myzus persicae spray test on Chinese cabbage leaf discs. Format: in vivo. The following applies: application rate 500 g/ha, after 6 days. From the text:
Discs of Chinese cabbage leaves (Brassica pekinensis) infested by all stages of the green peach aphid (Myzus persicae) are sprayed with an active ingredient formulation of the desired concentration.

The mark [3] stands for this setting: HPLC RP C18, acidic range pH 2.7, 0.1% aqueous formic acid/acetonitrile.
Where [4] appears, read: HPLC RP C18, neutral range pH 7.8, 0.001 molar aqueous ammonium hydrogencarbonate/acetonitrile.
[5] abbreviates: pH 2.7, HPLC RP C18, acidic range pH 2.7, 0.1% aqueous formic acid/acetonitrile, read-out: logP[a].
[6] abbreviates: pH 7.8, HPLC RP C18, neutral range pH 7.8, 0.001 molar aqueous ammonium hydrogencarbonate/acetonitrile, read-out: logP[b].

As for `CCn1cnc2nn(-c3cccnc3)cc2c1=O` [compound 9], in data set [1] (setting [3]), the “logP[a]” value turned out to be 0.80.
For `CN(C)C(=O)Cn1cnc2nn(-c3cccnc3)cc2c1=O` [compound 22], the “efficacy (aphids killed)” value in data set [2] stood at 90%. Moreover, in data set [1] (setting [3]), the “logP[a]” value amounted to 0.47. Besides, the “logP[b]” value in data set [1] (setting [4]) was determined as 0.51.
Consider `CCOC(=O)c1cn(-c2cncnc2)nc1N` [IIIb-2, ethyl 3-amino-1-(pyrimidin-5-yl)-1H-pyrazole-4-carboxylate], for which the values for the chromatographic logP in data set [1] (setting [5]) and in data set [1] (setting [6]) were 1.12 and 1.08, respectively.
Take `CC(C)(C)Cn1cnc2nn(-c3cccnc3)cc2c1=O` [compound 34]: the “efficacy (aphids killed)” value in data set [2] is listed as 100%. In addition, in data set [1] (setting [3]), the “logP[a]” value is on record as 1.70. In data set [1] (setting [4]), the “logP[b]” value is given as 1.71.
In the case of `CC(F)(F)Cn1cnc2nn(-c3cccnc3)cc2c1=O` [compound 24], the “efficacy (aphids killed)” value in data set [2] is 100%. The “logP[a]” value in data set [1] (setting [3]) was determined as 1.19. For the same compound, the “logP[b]” value in data set [1] (setting [4]) turned out to be 1.21.
As for `CCOC(=O)c1cnn(-c2cncnc2)c1N` [IIIa-2, Ethyl 5-amino-1-(pyrimidin-5-yl)-1H-pyrazole-4-carboxylate], the chromatographic logP in data set [1] (setting [5]) is 1.16; in data set [1] (setting [6]), 1.12.
For `CC(C)n1cnc2c(cnn2-c2cccnc2)c1=O` [compound 1], the “logP[a]” value in data set [1] (pH 2.7) worked out at 1.31.
With `CC(C)NC(=O)c1cn(-c2ccnnc2)nc1N` [IIb-3-1, 3-Amino-N-isopropyl-1-pyridazin-4-yl-pyrazole-4-carboxamide], the chromatographic logP in data set [1] (setting [5]) and in data set [1] (setting [6]) was 0.74 in each case.
Regarding `CCOC(=O)c1cnn(-c2ccnnc2)c1N` [IIIa-3, Ethyl 5-amino-1-pyridazin-4-yl-pyrazole-4-carboxylate], the chromatographic logP in data set [1] (setting [5]) and in data set [1] (setting [6]) was 1.12 throughout.
As for `CC(C)n1cnc2nn(-c3ccnnc3)cc2c1=O` [compound 38, 5-Isopropyl-2-pyridazin-4-yl-pyrazolo[3,4-d]pyrimidin-4-one], the “efficacy (aphids killed)” value in data set [2] is reported as 90%. Besides, the chromatographic logP in data set [1] (setting [5]) and in data set [1] (setting [6]) was 0.85 throughout.
Consider `C(=NNc1cccnc1)c1ccccc1` [VII-1, Benzaldehyde pyridin-3-yl hydrazone], for which the chromatographic logP in data set [1] (setting [5]) was found to be 0.86; in data set [1] (setting [6]), 2.22.
Turning to `Cn1cnc2c(cnn2-c2cccnc2)c1=O` [compound 7], the “logP[a]” value in data set [1] (pH 2.7) was 0.58. Besides, in data set [1] (pH 7.8), the “logP[b]” value came to 0.82.
In the case of `O=c1c2cnn(-c3cccnc3)c2ncn1-c1ccccc1` [compound 2], the “efficacy (aphids killed)” value in data set [2] is 90%. Besides, the “logP[a]” value in data set [1] (setting [3]) is listed as 1.57.
Take `Cc1ccc(-n2cnc3nn(-c4cccnc4)cc3c2=O)cc1` [compound 39]: the “efficacy (aphids killed)” value in data set [2] is listed as 100%. For the same compound, in data set [1] (setting [3]), the “logP[a]” value was 1.73. The “logP[b]” value in data set [1] (setting [4]) is listed as 1.73.
As to `CC(C)NC(=O)c1cn(-c2cccnc2)nc1N` [IIb-1-2, 3-Amino-N-isopropyl-1-(pyridin-3-yl)-1H-pyrazole-4-carboxamide], the figures for the chromatographic logP in data set [1] (setting [5]) and in data set [1] (setting [6]) were 0.82 and 1.05, respectively.
Regarding `O=c1c2cn(-c3ccccc3)nc2ncn1Cc1ncccn1` [compound 11], the “efficacy (aphids killed)” value in data set [2] is listed as 100%. Also, in data set [1] (setting [3]), the “logP[a]” value is 0.63.
As for `N#CC1(n2cnc3nn(-c4cccnc4)cc3c2=O)CC1` [compound 30], the “efficacy (aphids killed)” value in data set [2] was 100%. Further, the “logP[a]” value in data set [1] (setting [3]) stood at 0.82. For the same compound, the “logP[b]” value in data set [1] (setting [4]) was found to be 0.85.
For `Cn1cnc2nn(-c3cccnc3)cc2c1=O` [compound 18], in that order: 100%, 0.45 and 0.52.
As for `O=c1c2cnn(-c3cccnc3)c2ncn1-c1ccc(Cl)cc1` [compound 4], the “efficacy (aphids killed)” value in data set [2] is listed as 90%. Further, in data set [1] (setting [3]), the “logP[a]” value is on record as 2.04.
On to `CCNC(=O)c1cn(-c2cccnc2)nc1N` [IIb-1-1, 3-Amino-N-ethyl-1-(pyridin-3-yl)-1H-pyrazole-4-carboxamide], for which the chromatographic logP in data set [1] (setting [5]) came out at 0.45; in data set [1] (setting [6]) it was 0.77.
For `CCn1c(C(F)(F)F)nc2nn(-c3cccnc3)cc2c1=O` [compound 32, 5-Ethyl-2-(pyridin-3-yl)-6-(trifluoromethyl)-2,5-dihydro-4H-pyrazolo[3,4-d]pyrimidin-4-one] the same measures were 2.07 and 2.06.
On to `O=c1c2cn(-c3cccnc3)nc2ncn1CC(F)F` [compound 25], for which the “efficacy (aphids killed)” value in data set [2] is recorded as 100%. Further, in data set [1] (setting [3]), the “logP[a]” value worked out at 0.91. Also, in data set [1] (setting [4]), the “logP[b]” value stood at 0.96.
With `CC(C)n1nnc2nn(-c3cccnc3)cc2c1=O` [compound 36, 3-Isopropyl-6-(3-pyridyl)pyrazolo[3,4-d]triazin-4-one], in data set [2], the “efficacy (aphids killed)” value stood at 90%. In addition, the results for the chromatographic logP in data set [1] (setting [5]) and in data set [1] (setting [6]) were 1.72 and 1.7, respectively.
Regarding `CCOC(=O)c1cn(-c2cccnc2)nc1N` [IIIb-1, Ethyl 3-amino-1-(pyridin-3-yl)-1H-pyrazole-4-carboxylate], the chromatographic logP worked out at 1.12 in data set [1] (setting [5]) and 1.32 in data set [1] (setting [6]).
Turning to `CCOC(=O)c1cnn(-c2cccnc2)c1N` [IIIa-1, Ethyl 5-amino-1-(pyridin-3-yl)-1H-pyrazole-4-carboxylate], the “logP[a]” value in data set [1] (setting [3]) came to 1.10.
Regarding `O=c1c2cnn(-c3cccnc3)c2ncn1CC(F)(F)F` [compound 3], the “efficacy (aphids killed)” value in data set [2] was 100%. Besides, the “logP[a]” value in data set [1] (pH 2.7) is recorded as 1.48.
On to `CC(C)n1cnc2nn(-c3cccnc3)cc2c1=O` [compound 15, 5-Isopropyl-2-(pyridin-3-yl)-2,5-dihydro-4H-pyrazolo[3,4-d]pyrimidin-4-one], for which the “efficacy (aphids killed)” value in data set [2] is 100%. Further, the figures for the chromatographic logP in data set [1] (setting [5]) and in data set [1] (setting [6]) were 1.06 and 1.12, respectively.
On to `Cn1cnc2c(cnn2-c2cncnc2)c1=O` [compound 8, 5-Methyl-1-(pyrimidin-5-yl)-1,5-dihydro-4H-pyrazolo[3,4-d]pyrimidin-4-one], for which the chromatographic logP in data set [1] (setting [5]) and in data set [1] (setting [6]) was 0.55 each time.
Regarding `CNC(=O)c1cnn(-c2cncnc2)c1N` [IIb-2-1, 5-Amino-N-methyl-1-(pyrimidin-5-yl)-1H-pyrazole-4-carboxamide], the chromatographic logP was 0.18 in data set [1] (setting [5]) and -0.01 in data set [1] (setting [6]).
For `CCOC(=O)c1cn(-c2ccnnc2)nc1N` [IIIb-3, ethyl 3-amino-1-pyridazin-4-yl-pyrazole-4-carboxylate], in that order: 0.9 and 0.94.
For `CCn1cnc2c(cnn2-c2cccnc2)c1=O` [compound 6, 5-Ethyl-1-(pyridin-3-yl)-1,5-dihydro-4H-pyrazolo[3,4-d]pyrimidin-4-one], in that order: 0.98 and 1.15.
For `CCOC(=O)C(C#N)=CN(N=Cc1ccccc1)c1cccnc1` [VIII-1, Ethyl 3-[2-benzylidene-1-(pyridin-3-yl)hydrazino]-2-cyanoacrylate], in that order: 2.54 and 2.48.
Take `CCNC(=O)c1cnn(-c2cccnc2)c1N` [IIa-1-1, 5-Amino-N-ethyl-1-(pyridin-3-yl)-1H-pyrazole-4-carboxamide]: the chromatographic logP turned out to be 0.5 in data set [1] (setting [5]) and 0.56 in data set [1] (setting [6]).
As for `CCOC(=O)c1cnn(-c2cccnc2)c1N` [(IIIa-1). HCOOH, ethyl 5-amino-1-(pyridin-3-yl)-1H-pyrazole-4-carboxylate], the chromatographic logP was 1.18 in data set [1] (setting [5]) and 1.27 in data set [1] (setting [6]).

(Values after patent publication US9688681B2, “Heterocyclic compounds as pest control agents” (BAYER CROPSCIENCE AKTIENGESELLSCHAFT, priority 2013, dated 2017).)
